Experimental data: the Kinase Knowledgebase extract (Sharma et al. 2016)

Tests used:
MAPK14 [1] = molecular target: MAPK14 (UniProt Q16539); experiment: TNF Inhibition (In Vivo Assay)
MAPK14 [2] = molecular target: MAPK14 (UniProt Q16539); experiment: MAPK14 (CSBP) Binding Inhibition

Sequence of MAPK14 (Q16539 whole entry, looked up): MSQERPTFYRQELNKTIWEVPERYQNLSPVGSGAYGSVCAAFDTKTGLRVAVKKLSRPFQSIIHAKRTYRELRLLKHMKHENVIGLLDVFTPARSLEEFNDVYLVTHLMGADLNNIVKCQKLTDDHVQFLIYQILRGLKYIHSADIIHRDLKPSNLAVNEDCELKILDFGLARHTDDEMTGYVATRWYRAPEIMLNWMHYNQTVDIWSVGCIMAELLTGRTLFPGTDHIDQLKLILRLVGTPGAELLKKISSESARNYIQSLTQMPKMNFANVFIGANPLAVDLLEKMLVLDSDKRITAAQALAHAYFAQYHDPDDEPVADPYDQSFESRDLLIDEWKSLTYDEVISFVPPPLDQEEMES

With `COc1nccc(-c2c(-c3ccc(F)cc3)ncn2C2CCC(=O)CC2)n1` the IC50 (MAPK14 [1]) was less than 50 µM and the IC50 (MAPK14 [2]) was less than 50 µM.
`CSc1nccc(-c2c(-c3ccc(F)cc3)ncn2[C@H]2CC[C@H](O)CC2)n1` was tested, and the IC50 (MAPK14 [2]) was less than 50 µM.
`CC(C)Oc1nccc(-c2c(-c3ccc(F)cc3)ncn2C2CCC(O)CC2)n1` (stereo unspecified) showed an IC50 (MAPK14 [1]) of less than 50 µM and an IC50 (MAPK14 [2]) of less than 50 µM.
`O=C1CCC(n2cnc(-c3ccc(F)cc3)c2-c2ccnc(O)n2)CC1` was tested, and the IC50 (MAPK14 [2]) was less than 50 µM.
In the case of `COc1nccc(-c2c(-c3ccc(F)cc3)ncn2[C@H]2CC[C@@](C)(O)CC2)n1.COc1nccc(-c2c(-c3ccc(F)cc3)ncn2[C@H]2CC[C@](C)(O)CC2)n1`, the IC50 (MAPK14 [1]) is reported as less than 50 µM and the IC50 (MAPK14 [2]) is reported as less than 50 µM.
Work on `CC(C)Oc1nccc(-c2c(-c3ccc(F)cc3)ncn2C2CCC(=O)CC2)n1` yielded an IC50 (MAPK14 [1]) of less than 50 µM and an IC50 (MAPK14 [2]) of less than 50 µM.
Work on `CSc1nccc(-c2c(-c3ccc(F)cc3)ncn2C2CCC(=O)CC2)n1` yielded an IC50 (MAPK14 [2]) of less than 50 µM.
